Experiment [1] deals with carrageenin-induced foot edema. Nature of the experiment: Inhibition of carrageenin-induced foot edema (C.E.). Type of experiment: in vivo, rats. The conditions noted are these: Rattus norvegicus, oral, rats, read-out: percent inhibition, C.E. For orientation: In the carrageenan paw model, swelling and tenderness develop within hours.
Experimental: Anti-inflammatory activity was determined using (1) the inhibition of carrageenin-induced foot edema test described by Winter et al., Proc. Soc.
All data were obtained on oral administration in rats.
Experiment [2] relates to adjuvant-induced arthritis. Nature of the experiment: Inhibition of adjuvant-induced arthritis (A.A.). Type of experiment: in vivo. To be noted: Rattus norvegicus; .08 millimoles/kg, oral, rats; read-out: percent inhibition, A.A.
Experiment [3] has as its system histamine induced bronchoconstriction. As to the kind of experiment: Histamine induced bronchoconstriction test in anesthetized dogs. Type of experiment: in vivo. The conditions noted are these: Canis lupus familiaris, intraduodenal, intraduodenally, read-out: AED40 (Approximate Effective Dose resulting in 40% inhibition of bronchoconstriction).
Experiment [4] relates to human basophils. As to the kind of experiment: In vitro histamine release from human basophils test. The conditions noted are these: read-out: AEC50 (Approximate Effective Concentration resulting in 50% inhibition of allergic release of histamine). Type of experiment: cell-based.
Experiment [5] has as its system passive cutaneous anaphylaxis. As to the kind of experiment: Passive cutaneous anaphylaxis test (PCA). Type of experiment: in vivo. On the set-up: key: Actv.: active; Weak: weakly active; Inac.: inactive. To be noted: rats.
Experiment [6] relates to acetylcholine-induced abdominal constriction. As to the kind of experiment: Acetylcholine-induced abdominal constriction test (Ach). Type of experiment: in vivo, mice. To be noted: Mus musculus, po.
For experiment [7], the system named is bradykinin. Nature of the experiment: Anti-bradykinin test (BDK). Type of experiment: in vivo. To be noted: po.

The term ED50 denotes the dose at which the effect has come halfway, by size or by number of responders.

In the case of `CC(=O)NC1CCN(CC(C)c2ccc(C(=O)c3ccccc3)cc2)CC1.Cl.O` (centres unmarked) [Example 3C, 1-[2-(4-Benzoylphenyl)propyl]-4-acetylaminopiperidine hydrochloride monohydrate], the inhibition in vivo at 80 µmol/kg in experiment [1] (.08 millimoles/kg) is 41%; in experiment [2] it was 19%. In experiment [1] (.324 millimoles/kg), the inhibition in vivo at 324 µmol/kg is 53%. The ED40 in experiment [3] is approximately 5 mg/kg. The EC50 in experiment [4] is more than 10 µM. Besides, the “PCA activity (qualitative statement)” value in experiment [5] is reported as “Inac”. Further, the ED50 in experiment [6] came to 5.6 mg/kg; in experiment [7], 46 mg/kg.

The values are drawn from patent publication US4339576A, “Anti-asthmatic, anti-allergic, anti-cholinergic, bronchodilator and anti-inflammatory 1-[(benzoylphenyl)-lower-alkyl]piperidines and analogs thereof” (Sterling Drug Inc., priority 1981, dated 1982).
